Experimental data reported in US11684616B2, “Azalactam compounds as HPK1 inhibitors” (PFIZER INC., priority 2020, dated 2023).

Biological target: human full-length autophosphorylated recombinant HPK1 (Homo sapiens (Human), UniProt Q92918)
Assay: HPK1 biochemical enzyme assay (chelation-enhanced fluorescence, CHEF)
Settings: 0.5 nM HPK1, 45 μM ATP, Morrison fit
Experimental: HPK1 Biochemical Enzyme Assay
HPK1 enzyme inhibition was measured by using the fluorescence-based chelation-enhanced fluorescence (CHEF) method (1), and by using a proprietary fluorescent peptide substrate, in which a cysteine residue is alkylated with a sulfonamido-oxine-based derivative to afford an amino acid termed C-Sox (CSx). […] Initial reaction velocities were determined by following the peptide fluorescence (λex=360 nm, λem=500 nm) at 30° C. for 15 min in a Tecan M1000 plate reader (Tecan Group Ltd., Mannedorf, Zurich, Switzerland).
Production of Autophosphorylated Full-Length Recombinant HPK1
The DNA sequence encoding full-length human HPK1 (Genbank NM_001042600.2) was synthesized at GenScript and contained a limited number of silent base changes to eliminate certain restriction endonuclease enzyme recognition sites, and fused to a DNA sequence encoding a Tobacco Etch Virus (TEV)-cleavable N-terminal polyhistidine purification tag. A recombinant baculovirus was prepared by using the Bac-to-Bac method (InVitrogen) and was used to infect 9 L of Sf21 insect cells. All purification steps were carried out at 4° C. Cells containing recombinant HPK1 were lysed in 50 mM HEPES-NaOH, pH 7.5, 250 mM NaCl, 1 mM tris(2-carboxyethyl)phosphine (TCEP), 10 μM leupeptin (Sigma), 10 μM E-64 (Sigma), and one ‘EDTA-free’ protease inhibitor tablet (Roche) per 75 mL buffer, centrifuged at 15,000×g for 1 h and the supernatant passed over 5 mL of ProBond IMAC resin (InVitrogen). After washing, HPK1 was eluted with 12.5 mL of 50 mM HEPES-NaOH, pH 7.5, 400 mM NaCl, 250 mM imidazole-HCl pH 7.5, 1 mM TCEP, 2 μM leupeptin, and 2 μM E-64. The eluted HPK1 was dialyzed overnight against 0.8 L of 50 mM HEPES-NaOH, pH 7.5, 400 mM NaCl, 20 mM imidazole-HCl pH 7.5, 1 mM TCEP, 2 μM leupeptin, 2 μM E-64, 2 mM ATP-NaOH pH 7.3, 5 mM MgCl2 and 1 mg TEV (this step simultaneously allows for reduction of the imidazole concentration in preparation for the subsequent reverse IMAC chromatography step, removal of the polyhistidine purification tag by TEV protease, and autophosphorylation of HPK1 in the presence of MgATP). The de-tagged and autophosphorylated HPK1 was adjusted to 40 mM imidazole-HCl, pH 7.5, and passed through a 10 mL column of ProBond resin similarly equilibrated. […] The peak fractions containing HPK1 were pooled and concentrated to approximately 2.5 mL by using a centrifugal concentrator (Millipore). The concentrated HPK1 was adjusted to 20% (v/v) glycerol by the addition of 50% (v/v) glycerol, resulting in a final formulation of 25 mM HEPES-NaOH pH 7.5, 250 mM NaCl, 0.25 mM TCEP and 20% (v/v) glycerol. […] Aliquots of the enzyme were flash frozen in liquid nitrogen and stored at −80° C. The final product contains a glycine-serine extension at the N-terminus of the full-length protein, as a result of the cloning strategy.

human full-length autophosphorylated recombinant HPK1, sequence (Q92918 other isoform, or with tags, fused parts or gaps): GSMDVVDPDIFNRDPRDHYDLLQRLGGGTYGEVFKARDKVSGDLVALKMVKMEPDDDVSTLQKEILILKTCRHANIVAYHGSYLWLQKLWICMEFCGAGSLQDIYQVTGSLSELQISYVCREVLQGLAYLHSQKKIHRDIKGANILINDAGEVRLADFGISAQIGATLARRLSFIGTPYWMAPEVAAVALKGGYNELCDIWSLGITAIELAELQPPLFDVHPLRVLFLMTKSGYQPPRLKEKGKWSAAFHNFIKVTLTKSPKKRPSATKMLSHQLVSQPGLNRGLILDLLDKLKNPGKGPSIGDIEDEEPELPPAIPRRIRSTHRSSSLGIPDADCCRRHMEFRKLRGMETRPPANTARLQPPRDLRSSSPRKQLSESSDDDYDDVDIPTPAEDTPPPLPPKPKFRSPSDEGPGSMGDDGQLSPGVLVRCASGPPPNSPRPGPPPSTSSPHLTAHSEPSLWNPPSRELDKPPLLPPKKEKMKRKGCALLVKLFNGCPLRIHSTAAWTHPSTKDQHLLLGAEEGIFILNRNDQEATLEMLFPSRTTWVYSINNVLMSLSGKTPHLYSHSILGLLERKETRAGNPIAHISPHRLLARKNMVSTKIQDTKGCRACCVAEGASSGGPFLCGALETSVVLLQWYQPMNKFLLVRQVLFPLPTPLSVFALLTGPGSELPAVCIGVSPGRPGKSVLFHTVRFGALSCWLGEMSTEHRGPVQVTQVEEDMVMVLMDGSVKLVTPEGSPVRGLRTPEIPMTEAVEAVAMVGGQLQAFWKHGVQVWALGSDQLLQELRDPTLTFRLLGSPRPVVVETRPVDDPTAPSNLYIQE

| Compound | Ki [nM] |
| --- | --- |
| C[C@@H](N)c1nc(C2(C)CC2)cc2c1CN(c1cccc(-c3nncn3C3CCC3)n1)C2=O (stereo in doubt) [Example 103, 4-[(1ξ)-1-aminoethyl]-2-[6-(4-cyclobutyl-4H-1,2,4-triazol-3-yl)pyridin-2-yl]-6-(1-methylcyclo-propyl)-2,3-dihydro-1H-pyrrolo[3,4-c]pyridin-1-one] | 1.38 |
| C[C@H](N)c1nc(C2(C)CC2)cc2c1CN(c1cccc(-c3nncn3C3CCC3)n1)C2=O (stereo in doubt) [Example 104, 4-[(1ξ)-1-aminoethyl]-2-[6-(4-cyclobutyl-4H-1,2,4-triazol-3-yl)pyridin-2-yl]-6-(1-methylcyclo-propyl)-2,3-dihydro-1H-pyrrolo[3,4-c]pyridin-1-one] | 2.36 |
| CC[C@@H](N)c1nc(C2(C)CC2)cc2c1CN(c1cccc(-c3nncn3C3CCC3)n1)C2=O (stereo in doubt) [Example 105, 4-[(1ξ)-1-aminopropyl]-2-[6-(4-cyclobutyl-4H-1,2,4-triazol-3-yl)pyridin-2-yl]-6-(1-methylcyclo-propyl)-2,3-dihydro-1H-pyrrolo[3,4-c]pyridin-1-one] | 2.01 |
| CCC(CC)n1cnnc1-c1cccc(N2Cc3c(cc(C4(C)CC4)nc3[C@H](C)N)C2=O)n1 (stereo in doubt) [Example 125, 4-[(1ξ)-1-aminoethyl]-6-(1-methyl-cyclopropyl)-2-{6-[4-(pentan-3-yl)-4H-1,2,4-triazol-3-yl]pyridin-2-yl}-2,3-dihydro-1H-pyrrolo[3,4-c]pyridin-1-one] | 1.42 |
| CCC(CC)n1cnnc1-c1cccc(N2Cc3c(cc(C4(C)CC4)nc3[C@@H](C)N)C2=O)n1 (stereo in doubt) [Example 126, 4-[(1ξ)-1-aminoethyl]-6-(1-methyl-cyclopropyl)-2-{6-[4-(pentan-3-yl)-4H-1,2,4-triazol-3-yl]pyridin-2-yl}-2,3-dihydro-1H-pyrrolo[3,4-c]pyridin-1-one] | 1.78 |
| CCN(C)c1cc2c(c([C@@H](C)N)n1)CN(c1cccc(-c3nnc(C)n3CC)n1)C2=O (stereo in doubt) [Example 127, 4-[(1ξ)-1-aminoethyl]-6-[ethyl(methyl)amino]-2-[6-(4-ethyl-5-methyl-4H-1,2,4-triazol-3-yl)pyridin-2-yl]-2,3-dihydro-1H-pyrrolo[3,4-c]pyridin-1-one] | 1.41 |
| CCCn1cnnc1-c1cccc(N2Cc3c(cc(N(C)C)nc3[C@H](N)CC)C2=O)n1 (stereo in doubt) [Example 142, 4-[(1ξ)-1-aminopropyl]-6-(dimethyl-amino)-2-[6-(4-propyl-4H-1,2,4-triazol-3-yl)pyridin-2-yl]-2,3-dihydro-1H-pyrrolo[3,4-c]pyridin-1-one] | 1.54 |
| CC[C@@H](N)c1nc(N(C)C)cc2c1CN(c1cccc(-c3nncn3CC)n1)C2=O (stereo in doubt) [Example 146, 4-[(1ξ)-1-aminopropyl]-6-(dimethyl-amino)-2-[6-(4-ethyl-4H-1,2,4-triazol-3-yl)pyridin-2-yl]-2,3-dihydro-1H-pyrrolo[3,4-c]pyridin-1-one] | 3.14 |
| CC[C@H](N)c1nc(N(C)C)cc2c1CN(c1cccc(-c3nncn3CC)n1)C2=O (stereo in doubt) [Example 147, 4-[(1ξ)-1-aminopropyl]-6-(dimethyl-amino)-2-[6-(4-ethyl-4H-1,2,4-triazol-3-yl)pyridin-2-yl]-2,3-dihydro-1H-pyrrolo[3,4-c]pyridin-1-one] | 1 |
| CCn1cnnc1-c1cccc(N2Cc3c(cc(N(C)C)nc3[C@@H](C)N)C2=O)n1 (stereo in doubt) [Example 153, 4-[(1ξ)-1-aminoethyl]-6-(dimethyl-amino)-2-[6-(4-ethyl-4H-1,2,4-triazol-3-yl)pyridin-2-yl]-2,3-dihydro-1H-pyrrolo[3,4-c]pyridin-1-one] | 1.25 |
| CC[C@@H]1CCc2nnc(-c3cccc(N4Cc5c(cc(N6CCC[C@H]6C)nc5[C@@H](C)N)C4=O)n3)n21 [Example 7, 4-[(1R)-1-aminoethyl]-2-{6-[(5R)-5-ethyl-6,7-dihydro-5H-pyrrolo[2,1-c][1,2,4]triazol-3-yl]pyridin-2-yl}-6-[(2R)-2-methylpyrroli-din-1-yl]-2,3-dihydro-1H-pyrrolo[3,4-c]pyridin-1-one] | 2.8 |
| CC[C@@H]1CCc2nnc(-c3cccc(N4Cc5c(cc(N6CCC[C@H]6C)nc5[C@H](C)N)C4=O)n3)n21 [Example 8, 4-[(1S)-1-aminoethyl]-2-{6-[(5R)-5-ethyl-6,7-dihydro-5H-pyrrolo[2,1-c][1,2,4]triazol-3-yl]pyridin-2-yl}-6-[(2R)-2-methylpyrroli-din-1-yl]-2,3-dihydro-1H-pyrrolo[3,4-c]pyridin-1-one] | 5.6 |
| CC[C@@H]1CCc2nnc(-c3cccc(N4Cc5c(cc(N(C)C(C)C)nc5[C@@H](C)N)C4=O)n3)n21 [Example 12, 4-[(1R)-1-aminoethyl]-2-{6-[(5R)-5-ethyl-6,7-dihydro-5H-pyrrolo[2,1-c][1,2,4]triazol-3-yl]pyridin-2-yl}-6-[methyl(propan-2-yl)amino]-2,3-dihydro-1H-pyrrolo[3,4-c]pyridin-1-one] | 1.98 |
| CC[C@H]1CCc2nnc(-c3cccc(N4Cc5c(cc(N6CCC[C@H]6C)nc5[C@@H](N)CC)C4=O)n3)n21 [Example 15, 4-[(1S)-1-aminopropyl]-2-{6-[(5ξ)-5-ethyl-6,7-dihydro-5H-pyrrolo[2,1-c][1,2,4]triazol-3-yl]pyridin-2-yl}-6-[(2R)-2-methylpyrroli-din-1-yl]-2,3-dihydro-1H-pyrrolo[3,4-c]pyridin-1-one] | 8.47 |
| C[C@H](N)c1nc(N2CCC[C@H]2C)cc2c1CN(c1cccc(-c3nnc4n3[C@@H](CF)CC4)n1)C2=O [Example 19, 4-[(1ξ)-1-aminoethyl]-2-{6-[(5R)-5-(fluoromethyl)-6,7-dihydro-5H-pyrrolo[2,1-c][1,2,4]triazol-3-yl]pyridin-2-yl}-6-[(2R)-2-methylpyrroli-din-1-yl]-2,3-dihydro-1H-pyrrolo[3,4-c]pyridin-1-one] | 0.15 |
| C[C@@H]1CCCN1c1cc2c(c([C@@H](C)N)n1)CN(c1cccc(-c3nnc4n3[C@@H](C)CC4)n1)C2=O [Example 24, 4-[(1ξ)-1-aminoethyl]-2-{6-[(5ξ)-5-methyl-6,7-dihydro-5H-pyrrolo[2,1-c][1,2,4]triazol-3-yl]pyridin-2-yl}-6-[(2R)-2-methylpyrroli-din-1-yl]-2,3-dihydro-1H-pyrrolo[3,4-c]pyridin-1-one] | 1.76 |
| CC[C@H](N)c1nc(N2CCC[C@H]2C)cc2c1CN(c1cccc(-c3nncn3CC)n1)C2=O [Example 141, 4-[(1S)-1-aminopropyl]-2-[6-(4-ethyl-4H-1,2,4-triazol-3-yl)pyridin-2-yl]-6-[(2R)-2-methylpyrroli-din-1-yl]-2,3-dihydro-1H-pyrrolo[3,4-c]pyridin-1-one] | 0.44 |
| CCCn1cnnc1-c1cccc(N2Cc3c(cc(N(C)C)nc3[C@@H](N)CC)C2=O)n1 [Example 143, 4-[(1ξ)-1-aminopropyl]-6-(dimethyl-amino)-2-[6-(4-propyl-4I-1,2,4-triazol-3-yl)pyridin-2-yl]-2,3-dihydro-1I-pyrrolo[3,4-c]pyridin-1-one] | 3.73 |
| CCCn1cnnc1-c1cccc(N2Cc3c(cc(N4CCC[C@H]4C)nc3[C@@H](N)CC)C2=O)n1 [Example 145, 4-[(1S)-1-aminopropyl]-6-[(2R)-2-methylpyrroli-din-1-yl]-2-[6-(4-propyl-4H-1,2,4-triazol-3-yl)pyridin-2-yl]-2,3-dihydro-1H-pyrrolo[3,4-c]pyridin-1-one] | 0.46 |
| CC[C@@H]1CCc2nnc(-c3cccc(N4Cc5c(cc(N(C)C(C)C)nc5CNC)C4=O)n3)n21 [Example 204, 2-{6-[(5R)-5-ethyl-6,7-dihydro-5H-pyrrolo[2,1-c] [1,2,4]triazol-3-yl]pyridin-2-yl}-4-[(methyl-amino)methyl]-6-[methyl (propan-2-yl)amino]-2,3-dihydro-1H-pyrrolo[3,4-c] pyridin-1-one] | 1.29 |
